Experimental data taken from EP4741379A1, “CLASS OF PROGRAMMED CELL DEATH INHIBITORS, PREPARATION METHOD THEREFOR AND USE THEREOF” (SHANGHAI INSTITUTE OF ORGANIC CHEMISTRY, CHINESE ACADEMY OF …, priority 2023, dated 2025).
Where two headings read alike, the source gives them in different places.

Columns and labels:
L929 cells = assay: TNF-induced programmed necrosis of L929 cells (Cell Titer-Glo viability); assay type: cell-based, mouse; conditions: Mus musculus
Procedure: (§1) The biological test protocol is adopted to test effects of the compound on TNF-induced programmed necrosis of FADD (Fas-associated death domain)-deficient Jurkat cells and L929 cells.
(§2) Two different stimulation methods were used: treating with tumor necrosis factor (TNFα) alone, or treating with TNFα in combination of mitochondrial-derived cysteine-aspartate activator (SMAC) SM164. Cell viability was determined by measuring chemiluminescence values, thereby assessing the bioactivity of the compounds in inhibiting programmed cell necrosis.
(§3) Method: FADD-deficient Jurkat cells: FADD-deficient Jurkat cells (human peripheral blood leukemia T cell line) were cultured in vitro. After reaching logarithmic growth phase, cells were collected and centrifuged at 1000 rpm for 5 minutes. A supernatant was discarded. A cell concentration was adjusted to 2.5×10^5/mL, and cells were seeded into a 384-well plate at 40 µL per well. In the corresponding wells, 5 µL of SM164 (50 nM) and compounds diluted with cell culture medium were added. After pre-treatment at 37°C for 1 hour, 5 µL of TNFα (50 ng/mL) diluted with cell culture medium was added to each well as a stimulation group, while 5 µL of culture medium was added as a control group. After the plate was incubated in a cell culture incubator (37°C, 5% CO2) for 14 hours, 15 µL of Cell Titer-Glo solution was added to each well. Then, the plate was incubated at room temperature for 30 minutes. Luminescence was measured to assess intracellular ATP levels. Cell viability was set at 100% for unstimulated DMSO control wells. […] The plate was placed in a cell culture incubator (37°C, 5% CO2) and cultured for 12 hours. In the corresponding wells, 5 µL of SM164 (500 nM) and compounds diluted with cell culture medium were added. After pre-treatment at 37°C for 1 hour, 5 µL of TNFα (500 ng/mL) diluted with cell culture medium was added to the wells as a stimulation group, while 5 µL of culture medium was added as a control group. After the plate was incubated in the cell incubator (37°C, 5% CO2) for 14 hours, 15 µL of Cell Titer-Glo solution was added to each well. Then, the plate was incubated at room temperature for 30 minutes, and luminescence was measured to assess intracellular ATP levels. Cell viability was set at 100% for unstimulated DMSO control wells. EC50 values of the compounds were calculated using Prism GraphPad statistical software.

[1] = test system: FADD-deficient Jurkat cells; assay: TNF-induced programmed necrosis of FADD-deficient Jurkat cells (Cell Titer-Glo viability); assay type: cell-based, human; conditions: for EC50: Homo sapiens, Jurkat
Procedure: as §1, §2, §3

[2] = L929, stimulation with TNFα + SM164, read-out: EC50 (nM) L929 cells (mouse-derived) TNFα+ SM164
[3] = L929, stimulation with TNFα alone, read-out: EC50 (nM) L929 cells (mouse-derived) TNFα
[4] = stimulation with TNFα + SM164, read-out: EC50 (nM) FADD^-/- Jurkat cells (human-derived) TNFα+ SM164
[5] = stimulation with TNFα alone, read-out: EC50 (nM) FADD^-/- Jurkat cells (human-derived) TNFα
[6] = L929, read-out: EC50 (nM) L929 cells (mouse-derived) TNFα
[7] = read-out: EC50 (nM) FADD^-/- Jurkat cells (human-derived) TNFα

Compound | EC50 (L929 cells; [2]) [nM] | EC50 (L929 cells; [3]) [nM] | EC50 [1, 4] [nM] | EC50 [1, 5] [nM] | also measured
CC(C)Nc1ccc(C#Cc2ccc([C@H](C)NC(=O)c3nnn(C)c3Cc3ccccc3)cc2)nc1 [IRCBC-146] | 0.0014 |  |  |  | 
C[C@H](NC(=O)c1nnn(C)c1Cc1ccccc1)c1ccc(C#Cc2cccc(N(C)C)n2)cc1 [IRCBC-099] | 0.734 | 0.399 | 3.46 | 0.195 | 
C[C@H](NC(=O)c1nnn(C)c1Cc1ccccc1)c1ccc(C#Cc2c(F)cncc2F)cc1 [IRCBC-091] | 1.29 | 0.455 | 0.145 | 0.004 | 
Cn1nnc(C(=O)NCc2ccc(C#Cc3ccccn3)cc2F)c1Cc1ccccc1 [IRCBC-059] | 14.8 | 3.07 | 2.26 | 0.025 | 
C[C@H](NC(=O)c1nnn(C)c1Cc1ccccc1)c1ccc(C#Cc2cnn(C)c2)cc1 [QY-18-43] | 0.08 | 0.05 | 0.06 | 0.02 | 
C[C@H](NC(=O)c1nnn(C)c1Cc1cccc(Cl)c1)c1ccc(C#Cc2ccccn2)cc1 [IRCBC-016] |  |  |  |  | EC50 (L929 cells; [6]): 5.85 nM; EC50 [1, 7]: 1.69 nM
COc1cnc(C#Cc2ccc([C@H](C)NC(=O)c3nnn(C)c3Cc3ccccc3)cc2)nc1 [IRCBC-095] | 0.052 | 0.01 | 0.002 |  | 
CNc1cnc(C#Cc2ccc([C@H](C)NC(=O)c3nnn(C)c3Cc3ccccc3)cc2)cn1 [IRCBC-145] | 0.127 | 0.063 | 0.007 |  | 
C[C@H](NC(=O)c1cnn(C)c1Cc1ccccc1)c1ccc(C#Cc2ccccn2)cc1 [QY-20-2] | 0.5 | 0.1 | 0.3 | 0.03 | 
C[C@H](NC(=O)c1nnn(C)c1Cc1ccccc1)c1ccc(C#Cc2cnc(N(C)C)cn2)cc1 [IRCBC-098] | 0.062 | 0.011 | 0.004 |  | 
C[C@H](NC(=O)c1nnn(C)c1Cc1ccccc1)c1ccc(C#Cc2ccc(C(F)(F)F)cn2)cc1 [IRCBC-096] |  |  | 0.406 | 0.006 | EC50 (L929 cells; L929, stimulation with TNFα + SM164, µM, read-out: EC50 L929 cells (mouse-derived) TNFα+ SM164): > 1000 nM; EC50 (L929 cells; L929, stimulation with TNFα alone, µM, read-out: EC50 L929 cells (mouse-derived) TNFα): > 1000 nM
COC(C)(C)C#Cc1ccc([C@H](C)NC(=O)c2nnn(C)c2Cc2ccccc2)cc1 [IRCBC-036] |  |  |  |  | EC50 (L929 cells; [6]): 13.1 nM; EC50 [1, 7]: 0.222 nM
C[C@H](NC(=O)c1nnn(C)c1Cc1ccccc1)c1ccc(C#Cc2ncc[nH]2)cc1 [IRCBC-006] |  |  |  |  | EC50 (L929 cells; [6]): 81.9 nM; EC50 [1, 7]: 2.03 nM
C[C@H](NC(=O)c1nnn(C)c1Cc1ccccc1F)c1ccc(C#Cc2ccccn2)cc1 [IRCBC-067] | 0.887 | 0.264 | 0.261 | 0.004 | 
C[C@H](NC(=O)c1nnn(C)c1Cc1ccccc1)c1ccc(C#Cc2ncc(N(C)C)cn2)cc1 [IRCBC-097] | 0.003 | 0.001 |  |  | 
C[C@H](NC(=O)c1nnn(C)c1Cc1ccccc1)c1ccc(C#Cc2ccc(N3CCCC3)cn2)cc1 [IRCBC-104] | 0.12 | 0.071 | 0.002 |  | 
C[C@H](NC(=O)c1nnn(C)c1Cc1ccccc1)c1ccc(C#Cc2ncccc2F)cc1 [IRCBC-122] | 0.032 | 0.026 | 0.035 |  | 
CCN1CCN(c2ccc(C#Cc3ccc([C@H](C)NC(=O)c4nnn(C)c4Cc4ccccc4)cc3)nc2)CC1 [IRCBC-134] | 0.005 | 0.001 | 0.002 |  | 
C[C@H](NC(=O)c1nnn(C)c1Cc1ccccc1)c1ccc(C#CC2CC2)cc1 [QY-18-47] | 73 | 1 | 61 | 0.7 | 
C[C@H](NC(=O)c1nnn(C)c1Cc1ccccc1)c1ccc(C#Cc2cnn(C3CC3)c2)cc1 [IRCBC-041] |  |  |  |  | EC50 (L929 cells; [6]): 0.771 nM; EC50 [1, 7]: 0.004 nM
C[C@H](NC(=O)c1nnn(C)c1Cc1ccccc1)c1ccc(C#Cc2ccncc2)cc1 [QY-18-27] | 0.06 | 0.04 | 0.01 | < 0.01 | programmed necroptosis inhibitory activity compared to SAR443122 ([1]; TNFα alone or TNFα + SM164, human derived FADD-deficient Jurkat cells): stronger
C[C@H](NC(=O)c1nnn(C)c1Cc1ccccc1)c1ccc(C#Cc2nccn2C)cc1 [IRCBC-002] |  |  |  |  | EC50 (L929 cells; [6]): 55.7 nM; EC50 [1, 7]: 0.392 nM
